Results published in ChEMBL document CHEMBL4823244, “Synthesis of norisoboldine derivatives and bioactivity assay for inducing the generation of regulatory T cells” (Bioorg Med Chem Lett, 2021).
Activity calls are given as the source filed them. The calls are words filed in the database; no cut-off is given here.

How the values were obtained:
[1] = test system: EL4; experiment: Cytotoxicity against mouse EL4 cells assessed as effect on cell viability at 1 to 10 uM measured after 72 hrs by MTT assay; format: cell-based; conditions: el4, 72 h, dose 1-10 µM
[2] = test system: T-cell; experiment: Induction of cell differentiation in anti-CD3/CD28 stimulated naive T-cells assessed as upregulation of CD4+ CD25+ cell frequency at 0.2 mM measured after 72 hrs by flow cytometry analysis; format: functional, cell-based
[3] = test system: T-cell; experiment: Induction of cell differentiation in anti-CD3/CD28 stimulated naive T-cells assessed as upregulation of Foxp3 expression at 0.2 mM measured after 72 hrs by Q-PCR analysis; format: functional, cell-based
[4] = test system: T-cell; experiment: Induction of cell differentiation in anti-CD3/CD28 stimulated naive T-cells assessed as number of Treg cells at 0.2 mM measured after 72 hrs by flow cytometry analysis (reference value: 24 %); format: functional
[5] = test system: T-cell; experiment: Induction of cell differentiation in anti-CD3/CD28 stimulated naive T-cells assessed as upregulation of IL-10 mRNA expression at 0.2 mM measured after 72 hrs by Q-PCR analysis; format: functional, cell-based
[6] = test system: T-cell; experiment: Induction of cell differentiation in anti-CD3/CD28 stimulated naive T-cells assessed as upregulation of CD4+ CD25+ cell frequency at 1 uM measured after 72 hrs by flow cytometry analysis; format: functional, cell-based
[7] = test system: T-cell; experiment: Induction of cell differentiation in anti-CD3/CD28 stimulated naive T-cells assessed as upregulation of Foxp3 mRNA expression at 1 uM measured after 72 hrs by Q-PCR analysis; format: functional, cell-based

SMILES: COc1ccc(C(=O)N2CCc3cc(OC)c(O)c4c3C2Cc2cc(O)c(OC)cc2-4)cc1 (stereo unspecified)
- Activity [1]: Non-Toxic

SMILES: COc1cc2c(cc1O)CC1c3c(cc(OC)c(O)c3-2)CCN1C(=O)c1cc(OC)c(OC)c(OC)c1 (stereo unspecified)
- Activity [1]: Non-Toxic

SMILES: COc1cc2c(cc1O)CC1c3c(cc(OC)c(O)c3-2)CCN1C(=O)c1ccc(Br)cc1 (stereo unspecified)
- Activity [1]: Non-Toxic

SMILES: COc1cc2c(cc1O)CC1c3c(cc(OC)c(O)c3-2)CCN1C(=O)c1ccc(C)cc1 (stereo unspecified)
- Activity [1]: Non-Toxic

SMILES: COc1cc2c(cc1O)CC1c3c(cc(OC)c(O)c3-2)CCN1C(=O)c1ccc(F)cc1 (stereo unspecified)
- Activity [1]: Non-Toxic

SMILES: CCCC(=O)[O-].[Na+] [SODIUM BUTYRATE]
- Activity [1]: Non-Toxic
- Activity [2]: Active
- Activity [3]: Active
- Activity [4]: 32.4%
- Activity [5]: Active

SMILES: COc1cc2c(cc1O)CC1c3c(cc(OC)c(O)c3-2)CCN1Cc1ccc(C)cc1 (stereo unspecified)
- Activity [1]: Non-Toxic

SMILES: COc1cc2c(cc1O)CC1c3c(cc(OC)c(O)c3-2)CCN1C(=O)c1ccccc1 (stereo unspecified)
- Activity [1]: Non-Toxic

SMILES: COc1cccc(CN2CCc3cc(OC)c(O)c4c3C2Cc2cc(O)c(OC)cc2-4)c1 (stereo unspecified)
- Activity [1]: Non-Toxic

SMILES: COc1cc2c(cc1O)CC1c3c(cc(OC)c(O)c3-2)CCN1Cc1ccc(Cl)cc1 (stereo unspecified)
- Activity [1]: Non-Toxic
- Activity [6]: inactive
- Activity [7]: Active

SMILES: COc1cc(OC)cc(C(=O)N2CCc3cc(OC)c(O)c4c3C2Cc2cc(O)c(OC)cc2-4)c1 (stereo unspecified)
- Activity [1]: Non-Toxic

SMILES: COc1cc2c(cc1O)CC1c3c(cc(OC)c(O)c3-2)CCN1Cc1ccc(C#N)cc1 (stereo unspecified)
- Activity [1]: Non-Toxic

SMILES: COc1cc2c(cc1O)CC1c3c(cc(OC)c(O)c3-2)CCN1Cc1ccc([N+](=O)[O-])cc1 (stereo unspecified)
- Activity [1]: Non-Toxic

SMILES: COc1cc2c(cc1O)CC1c3c(cc(OC)c(O)c3-2)CCN1Cc1ccccc1 (stereo unspecified)
- Activity [1]: Non-Toxic

SMILES: COc1cc2c(cc1O)CC1c3c(cc(OC)c(O)c3-2)CCN1Cc1cc(C)cc(C)c1 (stereo unspecified)
- Activity [1]: Non-Toxic

SMILES: COc1cc2c(cc1O)CC1c3c(cc(OC)c(O)c3-2)CCN1Cc1ccc(Br)cc1 (stereo unspecified)
- Activity [1]: Non-Toxic

SMILES: COc1cc(CN2CCc3cc(OC)c(O)c4c3C2Cc2cc(O)c(OC)cc2-4)cc(OC)c1 (stereo unspecified)
- Activity [1]: Non-Toxic

SMILES: COc1cc2c(cc1O)CC1c3c(cc(OC)c(O)c3-2)CCN1C(=O)c1ccc(Cl)cc1 (stereo unspecified)
- Activity [1]: Non-Toxic

SMILES: COc1cc2c(cc1O)CC1c3c(cc(OC)c(O)c3-2)CCN1Cc1ccc(F)cc1 (stereo unspecified)
- Activity [1]: Non-Toxic

SMILES: COc1cc2c(cc1O)CC1c3c(cc(OC)c(O)c3-2)CCN1C(=O)c1ccc([N+](=O)[O-])cc1 (stereo unspecified)
- Activity [1]: Non-Toxic
